Experimental data from PubChem BioAssay (NCI).
“And” between values parts separate entries of the source, which are not always exact repeats. Equal values may be shown once.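 Five concentrations, 48 hours, 96-well plates. GI50 = concentration required for 50% inhibition of growth. TGI is the concentration that stops growth completely.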

Columns and labels:
Assay in all cases: growth of human tumour cells (NCI), 48 h
U251 CNS = test system: U251 CNS
MCF7 breast = test system: MCF7 breast
MALME-3M melanoma = test system: MALME-3M melanoma
TK-10 renal = test system: TK-10 renal
OVCAR-8 ovarian = test system: OVCAR-8 ovarian
IGROV1 ovarian = test system: IGROV1 ovarian
UACC-257 melanoma = test system: UACC-257 melanoma
MDA-MB-435 = test system: MDA-MB-435
RPMI-8226 leukemia = test system: RPMI-8226 leukemia
SN12C renal = test system: SN12C renal

Structure (SMILES) | GI50 (U251 CNS) [µM] | TGI (U251 CNS) | GI50 (MCF7 breast) [µM] | TGI (MCF7 breast) [µM] | GI50 (MALME-3M melanoma) [µM] | TGI (MALME-3M melanoma) [µM] | GI50 (TK-10 renal) [µM] | TGI (TK-10 renal) [µM] | GI50 (OVCAR-8 ovarian) [µM] | TGI (OVCAR-8 ovarian) [µM] | GI50 (IGROV1 ovarian) [µM] | TGI (IGROV1 ovarian) | GI50 (UACC-257 melanoma) [µM] | TGI (UACC-257 melanoma) [µM] | GI50 (MDA-MB-435) [µM] | TGI (MDA-MB-435) | TGI (RPMI-8226 leukemia) [µM] | GI50 (SN12C renal) | TGI (SN12C renal) [µM] | GI50 (RPMI-8226 leukemia) [µM]
O=C1/C(=C\c2ccc([N+](=O)[O-])cc2)CS(=O)(=O)C/C1=C/c1ccc([N+](=O)[O-])cc1 | 0.0731 | 0.483 µM and 2 µM | 0.157 | 2.12 | 0.32 | 2.12 | 0.992 | 2.97 | 0.0764 | 0.93 | 0.275 | 0.841 µM and 2.22 µM | 0.931 | 5.33 | 0.208 | 0.808 µM and 1.5 µM | 0.547 | 0.344 µM and 0.366 µM | 1.56 | –
NC(Cn1ccc(=O)c(O)c1)C(=O)O (centres undefined) | – | > 100 µM | – | > 100 | – | > 100 | – | > 100 | – | > 100 | – | > 100 µM | – | > 100 | – | > 100 µM | > 100 | – | > 100 | –
Cc1cc(NS(=O)(=O)c2ccc(NC(=O)COc3ccc(-c4cc5ccccc5[nH]4)cc3)cc2)no1 | 1.86 | 6.74 µM | 2.08 | 4.69 | 1.5 | 3.85 | 2.04 | 5.45 | 2.01 | 4.77 | 2.02 | 4.41 µM | 2.07 | 6.27 | 1.38 | 3.13 µM | > 100 | 2.24 µM | 10.4 | 2.87
[CH3][Sn]([CH3])([CH3])[O]C(=O)C(O)c1ccccc1 (centres undefined) | 5.84 | > 95.3 µM | > 100 | > 100 | 5.6 | 24.8 | > 59.3 | > 100 | 4.65 | > 54.9 | 8.47 | > 87.3 µM | 4.25 | > 41.7 | 3.52 | 14.8 µM | > 44.2 | 8.7 µM | 99 | 3.38
Cc1ccc(-c2c3c(N)nc(-c4ccncc4)nc3nc3c2c(C)nn3-c2ccccc2)cc1 | 6.12 | 31.7 µM | 3.63 | 24.4 | 7.73 | 16.2 | 9.5 | 25.6 | 3.63 | > 37.5 | 22.5 | > 37.5 µM | 13.3 | > 37.5 | 12.6 | > 37.5 µM | > 37.5 | 2.58 µM | > 37.5 | 18.6
Cc1ccc2c(n1)C(=O)C(Cl)=C(Nc1ccc(N3CCN(C)CC3)cc1)C2=O | 1.79 | 3.19 µM | 2.04 | 5.17 | 1.62 | 2.99 | 1.95 | 3.42 | 1.85 | 3.4 | 1.87 | 3.6 µM | 1.7 | 3.11 | 1.88 | 3.46 µM | 7.28 | 1.72 µM | 3.1 | 2.68
O=C1c2cccc3cccc(c23)C(=O)N1CC#Cc1ccc2c3c(cccc13)C(=O)N(CCN1CCNCC1)C2=O | 1.87 | 3.78 µM | 1.8 | 3.72 | 1.84 | 3.7 | 2.61 | 7.54 | 2.18 | 5.16 | 3.2 | 13 µM | 18.5 | 38.1 | 1.86 | 3.47 µM | 4.49 | 1.71 µM | 3.68 | 2.12
COc1cc(-c2ccc(Nc3ccccc3C(=O)O)c(OC)c2)ccc1Nc1ccccc1C(=O)O | – | 37.3 µM | – | > 100 | – | > 100 | – | > 89 | – | 81.5 | – | > 100 µM | – | > 100 | – | 46 µM | > 95.8 | – | > 73.6 | –
O=c1c(-c2ccc3c(c2)OCO3)coc2c(CO)c(O)ccc12 | 1.92 | 5.03 µM | 2.72 | 25.4 | 1.57 | 3.47 | 2.28 | 6.78 | 4.42 | 30.5 | 2.01 | 4.93 µM | 2.59 | 7.46 | 4.78 | 19.5 µM | 53.6 | 1.82 µM | 5.51 | 3.64
C/C(=C\CCc1ccsc1)CC/C=C(\C)CCCN1CCN(CCO)CC1 | 2.27 | 7.28 µM | 2.85 | 8.56 | 1.87 | 3.73 | 2.5 | 7.34 | 4.84 | 18.4 | 4.68 | 18.9 µM | 4.57 | 16 | 2.84 | 8.66 µM | 4.57 | 4.13 µM | 19.2 | 1.92
O=S(=O)(CC(O)C(Cl)(Cl)Cl)NNc1ccccc1 (centres undefined) | – | > 100 µM | – | > 100 | – | > 100 | – | > 100 | – | > 100 | – | > 100 µM | – | > 100 | – | > 100 µM | > 100 | – | > 100 | –
CCN1CCN(CC(=O)Nc2nc3ccc(NCc4ccc(C)cc4)cc3s2)CC1 | 2.77 | 9.14 µM | 1.81 | 8.41 | 1.04 | 2.43 | 7.54 | 15.1 | 6.66 | 16.5 | 6.14 | 14.1 µM | 3.33 | 11.3 | 1.05 | 2.3 µM | 3.34 | 4.11 µM | 11.1 | 1.09
O=C(O)CN(CC(=O)O)c1ccccc1 | – | > 100 µM | – | > 100 | – | > 100 | – | > 100 | – | > 100 | – | > 100 µM | – | > 100 | – | > 100 µM | 92.1 | – | > 100 | –
CCCCCCCCn1ccc2cc(NC(=O)Cn3cc(CN4CCC(C)CC4)nn3)ccc21 | 1.7 | 3.15 µM | 1.65 | 3.25 | 1.66 | 3.12 | 1.7 | 3.21 | 1.86 | 3.81 | 1.43 | 2.96 µM | 1.7 | 3.35 | 1.65 | 3.08 µM | 4.82 | 1.68 µM | 3.16 | 2.06
O=S1CCN(Cc2ccc(-c3ccc4ncnc(Nc5ccc(OCc6ccccc6)c(F)c5)c4c3)o2)CC1 | 13.9 | > 25 µM | 6.89 | > 16.5 | 7.08 | > 22.6 | 0.232 | > 25 | 11.4 | > 25 | 1.29 | > 25 µM | 6.66 | > 25 | 7.21 | > 24.2 µM | > 25 | 8.07 µM | > 25 | 8.71
